These results are taken from PMC3328272, “HIV-1 Nef interaction influences the ATP-binding site of the Src-family kinase, Hck” (BMC Chemical Biology, 2012).

One test deals with T1, mHck (Mus musculus, UniProt P08103, Q521E/Q522E/Q523I).
T1 construct: the N-terminal unique domain was replaced with a hexahistidine tag; hexahistidine (N); made in house; host or cells: Sf9 insect cells (baculovirus)
Description: Z'-Lyte in vitro kinase assay, mHck alone. The test is classed as biochemical. The settings on record: read-out: Km, ATP. How it is done:
(§1) Protein-tyrosine kinase assays were performed using the FRET-based Z'-Lyte kinase assay kit and Tyr-2 peptide substrate according to the manufacturer's instructions (Life Technologies) and our previous work. All assays were performed in quadruplicate in low-volume, non-binding 384-well plates (Corning). […] The Km for ATP was then calculated from a plot of ATP concentration against initial reaction velocity followed by non-linear regression analysis (GraphPad Prism). […] Development reagent was then added to the reaction for an additional 1 h at room temperature, followed by addition of the stop reagent. Fluorescence was assessed at an excitation wavelength of 400 nm; coumarin fluorescence and the fluorescein FRET signal were monitored at 445 and 520 nm, respectively. Reactions run in the absence of ATP served as the 0% phosphorylation control, whereas a stoichiometrically phosphorylated Tyr2 peptide was used as the 100% phosphorylation control. Raw fluorescence values were corrected for background, and reaction endpoints calculated as emission ratios of coumarin fluorescence divided by the fluorescein FRET signal. These ratios were normalized to the ratio obtained with the 100% phosphorylation control peptide. IC50 values were calculated using a sigmoidal curve fit using GraphPad Prism. […]

The next test has as its target T2, mHck + Nef-SF2 (Mus musculus, UniProt P08103, Q521E/Q522E/Q523I).
T2 construct: the N-terminal unique domain was replaced with a hexahistidine tag; hexahistidine (N); made in house; host or cells: Hck: Sf9 insect cells; Nef: E. coli
As to the kind of experiment: Z'-Lyte in vitro kinase assay, mHck + Nef-SF2. Format: biochemical. The conditions noted are these: mHck + Nef-SF2, Nef at 10-fold molar excess; read-out: Km, ATP. As to the method: as §1

For test [1], the target named is T3, mHck-TA (Mus musculus, UniProt P08103, Q521E/Q522E/Q523I/T331A).
T3 construct: the N-terminal unique domain was replaced with a hexahistidine tag; hexahistidine (N); made in house; host or cells: Sf9 insect cells (baculovirus)
T3 sequence (P08103 76-524 T331A/Q521E/Q522E/Q523I limits assumed): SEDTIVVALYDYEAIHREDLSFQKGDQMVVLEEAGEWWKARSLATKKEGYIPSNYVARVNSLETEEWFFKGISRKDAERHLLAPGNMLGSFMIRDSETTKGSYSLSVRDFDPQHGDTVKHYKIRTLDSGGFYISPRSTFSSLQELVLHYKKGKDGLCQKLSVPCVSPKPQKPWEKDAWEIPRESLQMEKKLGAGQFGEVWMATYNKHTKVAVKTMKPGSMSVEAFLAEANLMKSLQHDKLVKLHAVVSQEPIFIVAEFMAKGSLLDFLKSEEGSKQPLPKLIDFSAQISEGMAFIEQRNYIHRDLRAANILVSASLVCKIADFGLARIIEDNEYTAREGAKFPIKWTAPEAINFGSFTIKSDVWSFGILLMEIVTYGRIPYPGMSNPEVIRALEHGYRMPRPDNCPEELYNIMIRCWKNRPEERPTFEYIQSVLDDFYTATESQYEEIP
Description: Z'-Lyte in vitro kinase assay, mHck-TA alone. The test is classed as biochemical. The conditions noted are these: read-out: Km, ATP. How it is done: as §1

The target in a further test is T4, mHck-TA + Nef-SF2 (Mus musculus, UniProt P08103, Q521E/Q522E/Q523I/T331A).
T4 construct: the N-terminal unique domain was replaced with a hexahistidine tag; hexahistidine (N); made in house; host or cells: Hck: Sf9 insect cells; Nef: E. coli
T4 sequence (P08103 76-524 T331A/Q521E/Q522E/Q523I limits assumed): as above
Description: Z'-Lyte in vitro kinase assay, mHck-TA + Nef-SF2. The test is classed as biochemical. The conditions noted are these: mHck-TA + Nef-SF2, Nef at 10-fold molar excess; read-out: Km, ATP. How it is done:
as §1

Another test deals with T5, mHck-TA + Nef-Consensus (Mus musculus, UniProt P08103, Q521E/Q522E/Q523I/T331A).
T5 construct: the N-terminal unique domain was replaced with a hexahistidine tag; hexahistidine (N); made in house; host or cells: Hck: Sf9 insect cells; Nef: E. coli
T5 sequence (P08103 76-524 T331A/Q521E/Q522E/Q523I limits assumed): as above
As to the kind of experiment: Z'-Lyte in vitro kinase assay, mHck-TA + Nef-Consensus. The test is classed as biochemical. The conditions noted are these: Nef at 10-fold molar excess, read-out: Km, ATP. As to the method:
as §1

Another test has as its system T6, mHck-HART.
T6 construct: the N-terminal unique domain was replaced with a hexahistidine tag; hexahistidine (N); made in house; host or cells: Sf9 insect cells (baculovirus)
Description: Z'-Lyte in vitro kinase assay, mHck-HART alone. The test is classed as biochemical, mouse. The conditions noted are these: read-out: Km, ATP. How it is done:
as §1

The next test concerns T7, mHck-HART + Nef-SF2.
T7 construct: the N-terminal unique domain was replaced with a hexahistidine tag; hexahistidine (N); made in house; host or cells: Hck: Sf9 insect cells; Nef: E. coli
As to the kind of experiment: Z'-Lyte in vitro kinase assay, mHck-HART + Nef-SF2. Format: biochemical, mouse. The conditions noted are these: mHck-HART + Nef-SF2, Nef at 10-fold molar excess; read-out: Km, ATP. How it is done:
as §1

The target of test [2] is T8, mHck-TA-HART (Mus musculus, UniProt P08103, A89S/E88T/E93W/H91F/I90P/Q521E/Q522E/Q523I/R92P/T331A).
T8 construct: the N-terminal unique domain was replaced with a hexahistidine tag; hexahistidine (N); made in house; host or cells: Sf9 insect cells (baculovirus)
T8 sequence (P08103 76-524 E88T/A89S/I90P/H91F/R92P/E93W/T331A/Q521E/Q522E/Q523I): as the sequence (P08103 76-524 T331A/Q521E/Q522E/Q523I limits assumed) above, with E13T, A14S, I15P, H16F, R17P, E18W counted along it
As to the kind of experiment: Z'-Lyte in vitro kinase assay, mHck-TA-HART alone. Format: biochemical. The settings on record: read-out: Km, ATP. How it is done: as §1

The next test concerns the target T9, mHck-TA-HART + Nef-SF2 (Mus musculus, UniProt P08103, A89S/E88T/E93W/H91F/I90P/Q521E/Q522E/Q523I/R92P/T331A).
T9 construct: the N-terminal unique domain was replaced with a hexahistidine tag; hexahistidine (N); made in house; host or cells: Hck: Sf9 insect cells; Nef: E. coli
The test is classed as biochemical. How it is done:
Protein-tyrosine kinase assays were performed using the FRET-based Z'-Lyte kinase assay kit and Tyr-2 peptide substrate according to the manufacturer's instructions (Life Technologies) and our previous work. All assays were performed in quadruplicate in low-volume, non-binding 384-well plates (Corning). […] The Km for ATP was then calculated from a plot of ATP concentration against initial reaction velocity followed by non-linear regression analysis (GraphPad Prism). […] Development reagent was then added to the reaction for an additional 1 h at room temperature, followed by addition of the stop reagent. Fluorescence was assessed at an excitation wavelength of 400 nm; coumarin fluorescence and the fluorescein FRET signal were monitored at 445 and 520 nm, respectively. Reactions run in the absence of ATP served as the 0% phosphorylation control, whereas a stoichiometrically phosphorylated Tyr2 peptide was used as the 100% phosphorylation control. Raw fluorescence values were corrected for background, and reaction endpoints calculated as emission ratios of coumarin fluorescence divided by the fluorescein FRET signal. These ratios were normalized to the ratio obtained with the 100% phosphorylation control peptide. IC50 values were calculated using a sigmoidal curve fit using GraphPad Prism. Additional details of the Z'-Lyte assay principle and calculation of percent inhibition has been described elsewhere.

Test [3] addresses mHck-TA-HART + Nef-Consensus (Mus musculus, UniProt P08103, A89S/E88T/E93W/H91F/I90P/Q521E/Q522E/Q523I/R92P/T331A). Description: Z'-Lyte in vitro kinase assay, mHck-TA-HART + Nef-Consensus. Format: biochemical. How it is done:
as §1

In a further test the target is T10, Human Hck SH3 (Homo sapiens, UniProt P08631).
T10 construct: made in house; host or cells: E. coli BL21(DE3)pLysS
T10 sequence (P08631 78-138 limits assumed): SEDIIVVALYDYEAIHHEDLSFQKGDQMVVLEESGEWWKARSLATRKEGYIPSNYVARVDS
As to the kind of experiment: Surface plasmon resonance (SPR), Nef binding to immobilized SH3 domain. The settings on record: 1:1 Langmuir model. As to the method: (§2) Recombinant Hck SH3 domain proteins were exchanged into HBS-EP buffer (10 mM HEPES, pH 7.4, 150 mM NaCl, 3 mM EDTA, 0.05% v/v P20 surfactant) and concentrated with an Amicon Ultra 15 ml 3 kDa molecular weight cutoff spin concentrator. Primary untagged Nef proteins were exchanged into HBS-EPD buffer (10 mM HEPES, pH 7.4, 150 mM NaCl, 3 mM EDTA, 0.05% v/v P20 surfactant, 1 mM DTT) and concentrated with an Amicon Ultra 15 ml 10 kDa molecular weight cutoff spin concentrator. SPR analysis was performed on a BIAcore 3000 instrument (GE Healthcare) using a four-channel CM5 biosensor chip with the Hck SH3 domains covalently attached as ligand via standard amine coupling chemistry. […] The initial binding reaction was followed by dissociation for 5 min, and the chip surface was regenerated using HBS-EPD buffer at a flow rate of 30 μl/min for 10 min. Binding curves recorded at each analyte concentration were assessed in triplicate, corrected for buffer effects, and fit to a 1:1 Langmuir binding model using the BIAevaluation 4.1 software suite (GE Healthcare).

The target in another test is T11, Mouse Hck HART (Mus musculus, UniProt P08103, A89S/E88T/E93W/H91F/I90P/R92P).
T11 construct: made in house; host or cells: E. coli BL21(DE3)pLysS
T11 sequence (P08103 76-136 E88T/A89S/I90P/H91F/R92P/E93W limits assumed): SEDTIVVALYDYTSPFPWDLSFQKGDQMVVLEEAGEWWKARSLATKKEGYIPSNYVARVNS
The test is described as above. How it is done:
as §2

Another test addresses T12, Mouse Hck SH3 (Mus musculus, UniProt P08103).
T12 construct: made in house; host or cells: E. coli BL21(DE3)pLysS
Described as above. The conditions noted are these: 1:1 Langmuir model. As to the method: as §2

For test [4], the target named is T3, mHck-TA. Description: Nef-induced kinase activation over kinase:Nef ratios (Z'-Lyte). The test is classed as biochemical. As to the method:
as §1, with “Reactions run in the absence of ATP served as the 0% phosphorylation control, whereas a stoichiometrically phosphorylated Tyr2 peptide was used as the 100% phosphorylation control.” left out, “These ratios were normalized to the ratio obtained with the 100% phosphorylation control peptide.” left out
(§3) To determine the impact of the SH3-HART modification in the context of near full-length Hck, we next introduced the HART coding sequence into mHck-TA. […] This observation fits with the smaller enhancement in SH3-HART binding to Nef-Consensus as determined by SPR. […]

The target of test [5] is T8, mHck-TA-HART. The test is described as above. Format: biochemical. As to the method:
as §1, with “Reactions run in the absence of ATP served as the 0% phosphorylation control, whereas a stoichiometrically phosphorylated Tyr2 peptide was used as the 100% phosphorylation control.” left out, “These ratios were normalized to the ratio obtained with the 100% phosphorylation control peptide.” left out
as §3

The target of test [6] is similarly modified Hck SH3 domain. The settings on record: ITC; read-out: interaction (KD) with a similarly modified Hck SH3 domain via ITC; cited from earlier work. For orientation: In ITC the heat of successive injections is recorded.
[7] abbreviates: mHck-TA-HART with Nef-SF2 vs alone.
Where [8] appears, read: HART vs wild-type mouse SH3 domain.
Setting [9] is: Mouse Hck HART SH3 immobilized, 1:1 Langmuir model.

T9 sequence (P08103 whole entry E88T/A89S/I90P/H91F/R92P/E93W/T331A/Q521E/Q522E/Q523I, looked up, the tested form may be a part): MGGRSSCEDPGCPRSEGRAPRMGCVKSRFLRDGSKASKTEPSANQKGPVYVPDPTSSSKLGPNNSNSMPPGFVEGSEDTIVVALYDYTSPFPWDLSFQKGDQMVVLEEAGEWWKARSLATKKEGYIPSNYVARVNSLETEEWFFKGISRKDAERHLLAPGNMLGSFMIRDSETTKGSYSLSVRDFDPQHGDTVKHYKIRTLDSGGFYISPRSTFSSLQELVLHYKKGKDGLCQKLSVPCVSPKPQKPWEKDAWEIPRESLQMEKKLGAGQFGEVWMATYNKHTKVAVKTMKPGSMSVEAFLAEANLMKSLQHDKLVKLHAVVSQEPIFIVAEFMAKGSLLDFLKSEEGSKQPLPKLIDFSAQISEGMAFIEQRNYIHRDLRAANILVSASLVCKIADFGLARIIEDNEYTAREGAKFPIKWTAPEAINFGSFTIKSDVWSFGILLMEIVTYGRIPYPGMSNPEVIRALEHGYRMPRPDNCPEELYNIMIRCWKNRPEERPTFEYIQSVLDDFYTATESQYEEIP
T12 sequence (P08103 76-136 limits assumed): as the sequence (P08103 76-136 E88T/A89S/I90P/H91F/R92P/E93W limits assumed) above, with T13E, S14A, P15I, F16H, P17R, W18E counted along it
Sequence of mHck-TA-HART + Nef-Consensus (P08103 76-524 E88T/A89S/I90P/H91F/R92P/E93W/T331A/Q521E/Q522E/Q523I): as the sequence (P08103 76-524 T331A/Q521E/Q522E/Q523I limits assumed) above, with E13T, A14S, I15P, H16F, R17P, E18W counted along it
T2 sequence (P08103 76-524 Q521E/Q522E/Q523I): as the sequence (P08103 76-524 T331A/Q521E/Q522E/Q523I limits assumed) above, with A256T counted along it
T1 sequence (P08103 76-524 Q521E/Q522E/Q523I): as the sequence (P08103 76-524 T331A/Q521E/Q522E/Q523I limits assumed) above, with A256T counted along it

One may read the Km as the substrate concentration at which the rate is half of its maximum. With `Nc1ncnc2c1ncn2[C@@H]1O[C@H](COP(=O)(O)OP(=O)(O)OP(=O)(O)O)[C@@H](O)[C@H]1O` [ATP], the Km on mHck came to 12.1 ± 2 µM; on mHck + Nef-SF2, 14.8 ± 1.4 µM; at mHck-TA [1] it was 62 ± 12.6 µM; at mHck-TA + Nef-SF2, 68 ± 10.7 µM; at mHck-TA + Nef-Consensus, 84 ± 3.5 µM; with mHck-HART, 105 ± 29 µM. Further, the Km was found to be 49.3 ± 5.8 µM in the test with mHck-HART + Nef-SF2; 181 ± 28.7 µM at mHck-TA-HART [2]; 69 ± 17.6 µM at mHck-TA-HART + Nef-SF2 (mHck-TA-HART + Nef-SF2, Nef at 10-fold molar excess, read-out: Km, ATP); 76 ± 23.1 µM in [3] (mHck-TA-HART + Nef-Consensus, Nef at 10-fold molar excess, read-out: Km, ATP). Besides, the “reduction of the Km for ATP in the presence of Nef” value (on mHck-TA-HART + Nef-SF2 (setting [7]); in test [3] (mHck-TA-HART with Nef-Consensus vs alone)) was ~ 2.5 fold in each case.

With `CC(C)(C)n1nc(-c2cccc3ccccc23)c2c(N)ncnc21` [NaPP1, reference compound], on mHck-TA-HART + Nef-SF2 (setting [7]), the “increase in sensitivity to inhibition by NaPP1 in the presence of Nef” value is “more than three-fold”.

By Kd is commonly meant a measure of binding affinity in units of concentration. With “Nef-SF2: recombinant HIV-1 Nef protein, B-clade allele SF2, expressed in E. coli”, the Kd with Human Hck SH3 is 70 ± 10 nM; with Mouse Hck HART (setting [9]), 10 nM; with Mouse Hck SH3, 130 ± 30 nM; in test [6], 12 nM. Moreover, the results for the ka in the test with Human Hck SH3, in the test with Mouse Hck HART (setting [9]) and with Mouse Hck SH3 were 1.60 ± 0.06 M^-1s^-1 × 10^5, 14.20 ± 1.40 M^-1s^-1 × 10^5 and 5.54 ± 1.77 M^-1s^-1 × 10^5, respectively. Further, the results for the kd with Human Hck SH3, in the test with Mouse Hck HART (setting [9]) and with Mouse Hck SH3 were 1.18 ± 0.04 s^-1 × 10^-2, 1.43 ± 0.01 s^-1 × 10^-2 and 7.00 ± 0.36 s^-1 × 10^-2, respectively. The “enhancement of affinity by introduction of the HART sequence” value with Mouse Hck HART (setting [8]) is reported as 13 fold. Also, the “increase in the association rate constant with SH3-HART” value in the test with Mouse Hck HART (setting [8]) came to 2.5 fold. In the test with Mouse Hck HART (HART vs wild-type mouse SH3 domain, decrease for Nef-SF2, essentially unchanged for Nef-Consensus), the “change in the dissociation rate constant with SH3-HART” value is listed as approximately 5 fold. Further, the “excess of Nef required for full activation” value with mHck-TA [4] was found to be 5 fold. Moreover, the “kinase:Nef ratio at maximal activation” value with mHck-TA-HART [5] is 1 to 1.
